Assay results: US11168073B2, “3,3-difluoroallylamines or salts thereof and pharmaceutical compositions comprising the same” (YUHAN CORPORATION, priority 2018, dated 2021)
Structures can show the parent of a compound that is named as a salt. Where two headings read alike, the source gives them in different places.

Assays:
Type in all cases: biochemical
recombinant human VAP-1 = target: T1, recombinant human VAP-1 (Homo sapiens, UniProt Q16853); test: Activity evaluation on recombinant human VAP-1 (Amplex Red/HRP-coupled hydrogen peroxide assay, benzylamine substrate); conditions: read-out: Inhibitory Activity (IC50, nM) human VAP-1
T1 construct: purchased R&D systems
T1 sequence (Q16853 1-763): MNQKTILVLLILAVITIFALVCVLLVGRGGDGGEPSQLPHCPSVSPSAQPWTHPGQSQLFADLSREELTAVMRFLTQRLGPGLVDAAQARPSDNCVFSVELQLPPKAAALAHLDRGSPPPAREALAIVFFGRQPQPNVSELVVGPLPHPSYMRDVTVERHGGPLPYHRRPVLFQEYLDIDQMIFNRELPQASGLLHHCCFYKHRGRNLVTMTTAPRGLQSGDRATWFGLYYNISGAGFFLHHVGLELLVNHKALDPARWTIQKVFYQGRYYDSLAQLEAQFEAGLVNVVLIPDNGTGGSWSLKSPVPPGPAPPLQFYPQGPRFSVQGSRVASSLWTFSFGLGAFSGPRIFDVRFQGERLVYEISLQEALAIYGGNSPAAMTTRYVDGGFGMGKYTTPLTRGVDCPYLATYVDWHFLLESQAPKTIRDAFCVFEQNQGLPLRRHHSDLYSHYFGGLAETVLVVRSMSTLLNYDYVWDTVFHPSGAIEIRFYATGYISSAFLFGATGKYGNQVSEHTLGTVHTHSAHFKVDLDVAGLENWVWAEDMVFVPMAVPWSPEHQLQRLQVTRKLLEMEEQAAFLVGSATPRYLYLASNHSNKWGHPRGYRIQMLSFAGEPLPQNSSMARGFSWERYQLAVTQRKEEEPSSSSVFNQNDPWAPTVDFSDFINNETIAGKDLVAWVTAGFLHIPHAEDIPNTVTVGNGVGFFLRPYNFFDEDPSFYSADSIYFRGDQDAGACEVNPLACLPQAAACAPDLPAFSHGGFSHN
In short: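 Recombinant human VAP-1 in 50 mM sodium phosphate pH 7.4 preincubated 30 min at 37 °C with compound (8-point 1:3 series, <1% DMSO), then 1 mM benzylamine, 200 uM Amplex Red, 1 U/mL HRP added. H2O2-derived resorufin fluorescence (ex 544/em 590) followed 1–2 h; IC50 from four-parameter fit of rate inhibition.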

[1] = target: T2, recombinant human MAO-A (monoamine oxidase-A) (Homo sapiens, UniProt P21397); test: Activity evaluation on recombinant human MAO-A (Amplex Red/HRP-coupled assay, 0.5 mM tyramine substrate); conditions: read-out: Inhibitory Activity (IC50, nM) MAO-A
T2 construct: purchased Sigma-Aldrich
T2 sequence (P21397 1-527): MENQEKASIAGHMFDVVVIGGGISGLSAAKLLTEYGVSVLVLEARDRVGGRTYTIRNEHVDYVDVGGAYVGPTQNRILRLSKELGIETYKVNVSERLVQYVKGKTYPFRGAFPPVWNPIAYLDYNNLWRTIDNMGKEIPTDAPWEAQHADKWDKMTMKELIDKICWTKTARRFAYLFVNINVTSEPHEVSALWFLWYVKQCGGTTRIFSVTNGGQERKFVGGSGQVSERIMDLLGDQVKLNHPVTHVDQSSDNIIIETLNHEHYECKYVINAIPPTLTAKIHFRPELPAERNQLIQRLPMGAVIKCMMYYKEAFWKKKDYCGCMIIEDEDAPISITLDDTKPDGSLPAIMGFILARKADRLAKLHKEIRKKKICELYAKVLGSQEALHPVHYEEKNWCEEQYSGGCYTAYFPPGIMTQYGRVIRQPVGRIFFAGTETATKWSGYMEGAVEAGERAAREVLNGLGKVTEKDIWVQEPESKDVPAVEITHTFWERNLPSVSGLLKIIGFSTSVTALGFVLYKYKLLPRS
In short: (§1)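 Compounds preincubated 30 min at 37 °C with enzyme in 50 mM sodium phosphate pH 7.4 (final DMSO <1%, 8-point 1:3 dilutions); reaction started with 200 uM Amplex Red, 1 U/mL HRP and substrate (MAO-A 0.5 mM tyramine, MAO-B 1 mM benzylamine, DAO 1 mM putrescine). Resorufin fluorescence (ex 544/em 590 nm) followed over 1-2 h; IC50 from four-parameter logistic fit.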

[2] = target: T3, recombinant human MAO-B (monoamine oxidase-B) (Homo sapiens, UniProt P27338); test: Activity evaluation on recombinant human MAO-B (Amplex Red/HRP-coupled assay, 1 mM benzylamine substrate); conditions: read-out: Inhibitory Activity (IC50, nM) MAO-B
T3 construct: purchased Sigma-Aldrich
T3 sequence (P27338 1-520): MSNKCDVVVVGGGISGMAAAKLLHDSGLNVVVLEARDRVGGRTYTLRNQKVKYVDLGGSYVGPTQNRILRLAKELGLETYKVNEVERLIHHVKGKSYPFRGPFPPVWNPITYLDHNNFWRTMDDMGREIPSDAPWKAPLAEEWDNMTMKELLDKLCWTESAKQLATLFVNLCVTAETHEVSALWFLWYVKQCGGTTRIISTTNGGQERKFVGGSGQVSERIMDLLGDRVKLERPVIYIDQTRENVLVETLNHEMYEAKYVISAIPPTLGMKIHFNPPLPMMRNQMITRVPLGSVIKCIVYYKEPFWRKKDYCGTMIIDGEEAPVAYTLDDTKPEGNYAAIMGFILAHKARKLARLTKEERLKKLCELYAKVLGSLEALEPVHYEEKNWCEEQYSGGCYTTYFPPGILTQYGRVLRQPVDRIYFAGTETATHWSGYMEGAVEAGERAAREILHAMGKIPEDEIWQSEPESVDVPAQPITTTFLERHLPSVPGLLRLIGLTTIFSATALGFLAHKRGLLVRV
In short: as §1

[3] = target: T4, recombinant human DAO (diamine oxidase) (Homo sapiens, UniProt P19801); test: Activity evaluation on recombinant human DAO (Amplex Red/HRP-coupled assay, 1 mM putrescine substrate); conditions: read-out: Inhibitory Activity (IC50, nM) DAO
T4 construct: purchased R&D systems
T4 sequence (P19801 20-751): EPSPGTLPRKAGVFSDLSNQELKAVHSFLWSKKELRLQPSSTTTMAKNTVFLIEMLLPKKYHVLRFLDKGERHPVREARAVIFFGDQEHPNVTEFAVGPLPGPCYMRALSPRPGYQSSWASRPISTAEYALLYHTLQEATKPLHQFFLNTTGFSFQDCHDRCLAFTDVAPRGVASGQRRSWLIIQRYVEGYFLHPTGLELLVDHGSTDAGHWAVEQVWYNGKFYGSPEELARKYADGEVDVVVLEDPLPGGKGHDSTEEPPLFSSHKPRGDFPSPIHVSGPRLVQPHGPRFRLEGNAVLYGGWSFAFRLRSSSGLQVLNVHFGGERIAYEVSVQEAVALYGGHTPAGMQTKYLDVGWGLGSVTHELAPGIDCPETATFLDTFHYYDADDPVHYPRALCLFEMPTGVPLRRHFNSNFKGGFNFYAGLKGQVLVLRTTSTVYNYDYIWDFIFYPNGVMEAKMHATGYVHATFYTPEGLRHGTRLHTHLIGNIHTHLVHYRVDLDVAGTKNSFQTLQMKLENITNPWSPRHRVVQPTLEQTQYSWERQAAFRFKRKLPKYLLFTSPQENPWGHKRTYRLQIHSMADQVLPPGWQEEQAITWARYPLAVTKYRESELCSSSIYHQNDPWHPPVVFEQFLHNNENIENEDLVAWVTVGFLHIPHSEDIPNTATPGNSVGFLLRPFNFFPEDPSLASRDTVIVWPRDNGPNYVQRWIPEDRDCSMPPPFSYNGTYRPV
In short: as §1

[4] = recombinant human VAP-1, 30 min preincubation at 37° C., 1 mM benzylamine
[5] = recombinant human VAP-1, benzylamine substrate

IC50 (recombinant human VAP-1; [4]) | IC50 ([1]; 0.5 mM tyramine) | IC50 ([2]; 1 mM benzylamine) | IC50 ([3]; 1 mM putrescine) | IC50 (recombinant human VAP-1; [5]) | IC50 ([1]; 0.5 mM tyramine substrate) | IC50 ([2]; 1 mM benzylamine substrate) | IC50 ([3]; 1 mM putrescine substrate) | SMILES
 |  |  |  | 0.7 nM | > 100000 nM | > 100000 nM | 280 nM | NCC(Cn1ncn(-c2cccc(-c3ccc(N4CCOCC4)nc3)n2)c1=O)=C(F)F [Example 215, 2-[2-(aminomethyl)-3,3-difluoro-allyl]-4-[6-(6-morpholino-3-pyridyl)-2-pyridyl]-1,2,4-triazol-3-one Trifluoroacetate]
 |  |  |  | 6.5 nM | > 100000 nM | > 100000 nM | > 100000 nM | Cc1c(-c2cnn(C(F)F)c2)cccc1-n1cnn(CC(CN)=C(F)F)c1=O [Example 261, 2-[2-(aminomethyl)-3,3-difluoro-allyl]-4-[3-[1-(difluoromethyl)pyrazol-4-yl]-2-methyl-phenyl]-1,2,4-triazol-3-one Trifluoroacetate]
 |  |  |  | 2.3 nM | > 100000 nM | 14600 nM | 639 nM | NCC(Cn1ncn(Cc2cc3cc(-c4ccc(N5CCNCC5)cc4)ccc3s2)c1=O)=C(F)F [Example 206, 2-[2-(aminomethyl)-3,3-difluoro-allyl]-4-[[5-(4-piperazin-1-ylphenyl)benzothiophen-2-yl]methyl]-1,2,4-triazol-3-one Ditrifluoroacetate]
0.2 nM | > 100000 nM | 860 nM | 4 nM |  |  |  |  | CN1C(=O)CCc2cc(-c3cnc(-n4cnn(CC(CN)=C(F)F)c4=O)cn3)ccc21 [Example 94, 6-[5-[1-[2-(aminomethyl)-3,3-difluoro-allyl]-5-oxo-1,2,4-triazol-4-yl]pyrazin-2-yl]-1-methyl-3,4-dihydro-1H-quinolin-2-one Trifluoroacetate]
0.2 nM | > 100000 nM | 900 nM | 7 nM |  |  |  |  | NCC(Cn1ncn(-c2ncc(-c3ccc(C(F)(F)F)nc3)cc2F)c1=O)=C(F)F [Example 84, 2-[2-(aminomethyl)-3,3-difluoro-allyl]-4-[3-fluoro-5-[6-(trifluoromethyl)-3-pyridyl]-2-pyridyl]-1,2,4-triazol-3-one Trifluoroacetate]

Second part, the compound before the results:

SMILES | IC50 (recombinant human VAP-1; [4]) | IC50 ([1]; 0.5 mM tyramine) | IC50 ([2]; 1 mM benzylamine) | IC50 ([3]; 1 mM putrescine) | IC50 (recombinant human VAP-1; [5]) | IC50 ([1]; 0.5 mM tyramine substrate) | IC50 ([2]; 1 mM benzylamine substrate) | IC50 ([3]; 1 mM putrescine substrate)
NCC(Cn1ncn(Cc2cc(-c3ccc4c(c3)OCO4)cs2)c1=O)=C(F)F [Example 150, 2-[2-(aminomethyl)-3,3-difluoro-allyl]-4-[[4-(1,3-benzodioxol-5-yl)-2-thienyl]methyl]-1,2,4-triazol-3-one Trifluoroacetate] | 2.9 nM | > 100000 nM | 2800 nM | > 10000 nM |  |  |  | 
NCC(Cn1ncn(Cc2ccc(C#Cc3cnc4c(c3)OCC(=O)N4)s2)c1=O)=C(F)F [Example 170, 7-[2-[5-[[1-[2-(aminomethyl)-3,3-difluoro-allyl]-5-oxo-1,2,4-triazol-4-yl]methyl]-2-thienyl]ethynyl]-4H-pyrido[3,2-b][1,4]oxazin-3-one Trifluoroacetate] | 0.8 nM | > 100000 nM | 14000 nM | > 10000 nM |  |  |  | 
CS(=O)(=O)c1ccc(-c2csc(Cn3cnn(CC(CN)=C(F)F)c3=O)c2)cc1 [Example 146, 2-[2-(aminomethyl)-3,3-difluoro-allyl]-4-[[4-(4-methylsulfonylphenyl)-2-thienyl]methyl]-1,2,4-triazol-3-one Trifluoroacetate] | 1.1 nM | > 100000 nM | 33000 nM | 9200 nM |  |  |  | 
CCn1cc(-c2cccc(Cn3cnn(CC(CN)=C(F)F)c3=O)c2)cn1 [Example 271, 2-[2-(aminomethyl)-3,3-difluoro-allyl]-4-[[3-(1-ethylpyrazol-4-yl)phenyl]methyl]-1,2,4-triazol-3-one Trifluoroacetate] |  |  |  |  | 2.2 nM | > 100000 nM | 1590 nM | > 100000 nM
Cc1cc(-c2ccnc(-n3cnn(CC(CN)=C(F)F)c3=O)c2)cc2c1NC(=O)CC2 [Example 59, 6-[2-[1-[2-(aminomethyl)-3,3-difluoro-allyl]-5-oxo-1,2,4-triazol-4-yl]-4-pyridyl]-8-methyl-3,4-dihydro-1H-quinolin-2-one Trifluoroacetate] | 0.5 nM | > 100000 nM | > 100000 nM | 84 nM |  |  |  | 
CCn1cc(-c2ccc(-c3csc(Cn4cnn(CC(CN)=C(F)F)c4=O)c3)cc2)cn1 [Example 288, 2-[2-(aminomethyl)-3,3-difluoro-allyl]-4-[[4-[4-(1-ethylpyrazol-4-yl)phenyl]-2-thienyl]methyl]-1,2,4-triazol-3-one Trifluoroacetate] |  |  |  |  | 2.6 nM | 2910 nM | 3230 nM | 3780 nM
NCC(Cn1ncn(Cc2cc(-c3cc(F)c4[nH]c(=O)ccc4c3)cs2)c1=O)=C(F)F [Example 189, 6-[5-[[1-[2-(aminomethyl)-3,3-difluoro-allyl]-5-oxo-1,2,4-triazol-4-yl]methyl]-3-thienyl]-8-fluoro-1H-quinolin-2-one Trifluoroacetate] |  |  |  |  | 0.5 nM | > 100000 nM | > 100000 nM | 23000 nM
